Data as given in patent US5143908A, “Antibacterial agents and potentiators of carbapenem antibiotics” (Merck & Co., Inc., priority 1990, dated 1992).
Values after ≈ are worked out from the molar mass of the structure shown.

Tests used:
[1] = biological target: T1, D-Alanyl-D-Alanine ligase (Enterococcus hirae, UniProt Q47827); experiment: D-Alanyl-D-Alanine ligase inhibition in vitro; format: biochemical; conditions: inhibitor pre-incubated with enzyme 40 minutes at room temperature, then 37° C. for 30 minutes; 14C-D-alanine substrate; read-out: IC50 (μM), DAlaAla ligase inhibition
T1 sequence (Q47827 1-358): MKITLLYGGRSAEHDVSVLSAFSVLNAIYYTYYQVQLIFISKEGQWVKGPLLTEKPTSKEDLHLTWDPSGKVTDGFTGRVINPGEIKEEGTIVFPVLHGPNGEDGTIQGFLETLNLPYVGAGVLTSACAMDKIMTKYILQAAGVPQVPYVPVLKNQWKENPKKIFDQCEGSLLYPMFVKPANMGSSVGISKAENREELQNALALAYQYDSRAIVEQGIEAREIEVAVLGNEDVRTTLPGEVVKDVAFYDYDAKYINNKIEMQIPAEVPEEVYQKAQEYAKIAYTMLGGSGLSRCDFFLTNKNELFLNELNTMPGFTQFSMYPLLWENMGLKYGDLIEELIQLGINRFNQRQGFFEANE
Procedure: The ligase enzyme inhibitory activity of compounds of Formula I have been evaluated in vitro with only minor modifications of the procedures of F. C. Neuhaus (Biochemistry 3, 471-480 (1964) and references cited therein) using D-cycloserine as a control and standard ligase inhibitor. The procedure is as follows:
Streptococcus faecalis (ATCC 8043) was grown as described by Neuhaus (J. Biol. Chem., 237:778, 1962). Cell-free extracts were prepared by sonication followed by centrifugation at 27,000 x g for 30 minutes. Protein was precipitated with 55% ammonium sulfate. The precipitate was dissolved in 0.05M Tris-Cl buffer (pH 7.0), dialyzed against 0.002M glutathione and stored in liquid nitrogen. No loss of activity was observed after 1 year.
The assay mixture contained 0.05M Tris-Cl buffer (pH 7.9), 0.01M KCl, 0.008M MgCl2, 0.005M ATP, 0.005M (14C-l)-D-alanine and 5 μl of enzyme (specific activity=0.38 units/mg protein). Assay volume was 0.1 ml.
Inhibitors were pre-incubated with enzyme, MgCl2, KCl and buffer, for 40 minutes at room temperature, before addition of ATP and substrate. Samples were subsequently incubated at 37° C. for 30 minutes.
Twenty μl of each sample was applied to the preabsorbent layer of high resolution, prechanneled silica-gel TLC plates to stop the reaction. Plates were developed in ethanol:ammonium hydroxide:H2 O (11:1:8) for 2-3 hours and the radioactive zones located and integrated with a Berthold Linear Analyzer. […] IC50's were determined for active compounds (70% inhibition).

[2] = test system: E. coli TEM 2+; experiment: Agar dilution antibacterial assay (MIC); format: cell-based; conditions: Escherichia coli, read-out: Minimum Inhibitory Concentration, E. coli TEM 2+
Source text: The antibacterial data shown below were obtained using a synthetic agar medium described by F. R. Atherton et al., Antimicrobial Agents and Chemotherapy, 15, 677 (1979).
(Minimum Inhibitory Concentrations from Agar Dilution Assays in mg/ml)

Row | Structure (SMILES) | IC50 [1] [µM] | MIC [2] [mg/mL]
1 | CC(N)P(=O)(O)CCC(=O)O (racemic) [DL, R2=H, R3=H, 1-Aminoethyl-[2-carboxy-1-ethyl]phosphinic acid] | 535 | 
2 | CCC(CP(=O)(O)C(C)N)C(=O)O (racemic) [DL, R2=ethyl, R3=H, 1-Aminoethyl-[2-carboxy-1-n-butyl]phosphinic acid] | 50 | 
3 | CCCCCCCC(CP(=O)(O)C(C)N)C(=O)O (racemic) [DL, R2=n-heptyl, R3=H, 1-Aminoethyl-[2-carboxy-1-nonyl]phosphinic acid] | 12.5 | 
4 | CCC(CP(=O)(O)[C@@H](C)N)C(=O)O (stereo partly drawn) [D, R2=ethyl, R3=H, 1-D-Aminoethyl-(2-carboxy-1-n-butyl)phosphinic acid] |  | 64 (≈ 306 mM)
